Test results: ChEMBL document CHEMBL1201862, “PubChem BioAssay data set” (2004)
Active and inactive are the calls of the source.

Key:
Type in all cases: functional
[1] = molecular target: Serine/threonine-protein kinase pim-1 (Homo sapiens, UniProt P11309)
[2] = molecular target: Casein kinase I isoform alpha (Homo sapiens, UniProt P48729)
[3] = molecular target: Vascular endothelial growth factor receptor 2 (Homo sapiens, UniProt P35968)
Aurora kinase B = Aurora kinase B (Homo sapiens, UniProt Q96GD4)
[4] = molecular target: Cyclin-dependent kinase 7 (Homo sapiens, UniProt P50613);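 further: value comes from a kinome-wide kinase profiling panel in which CDK7 is one member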
[5] = molecular target: Leukocyte tyrosine kinase receptor (Homo sapiens, UniProt P29376); experiment: Navigating the Kinome. Panel member name: LTK
[6] = molecular target: Serine/threonine-protein kinase Chk1 (Homo sapiens, UniProt O14757);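 further: measured as one member of a kinome-wide kinase profiling panel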
[7] = molecular target: Leucine-rich repeat serine/threonine-protein kinase 2 (Homo sapiens, UniProt Q5S007);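 further: value from a broad kinome-wide panel profiling study in which LRRK2 was one of the kinases tested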
[8] = molecular target: Dual specificity protein kinase CLK4 (Homo sapiens, UniProt Q9HAZ1)
[9] = molecular target: Cyclin-dependent kinase 9 (Homo sapiens, UniProt P50750);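 further: value from the CDK9 entry of a kinome-spanning kinase panel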
[10] = molecular target: Tyrosine-protein kinase receptor TYRO3 (Homo sapiens, UniProt Q06418);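 further: TYRO3 value obtained as one member of a kinome-wide profiling panel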
[11] = molecular target: Macrophage-stimulating protein receptor (Homo sapiens, UniProt Q04912); experiment: Navigating the Kinome. Panel member name: MST1R
[12] = molecular target: Tyrosine-protein kinase Lck (Homo sapiens, UniProt P06239);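 further: lck was assayed as one member of a kinase panel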
[13] = molecular target: Dual specificity mitogen-activated protein kinase kinase 1 (Homo sapiens, UniProt Q02750); experiment: Navigating the Kinome. Panel member name: MAP2K1
[14] = molecular target: Mitogen-activated protein kinase kinase kinase kinase 4 (Homo sapiens, UniProt O95819)
[15] = molecular target: ALK tyrosine kinase receptor (Homo sapiens, UniProt Q9UM73);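 further: ALK tested as one member of a kinase panel screen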
[16] = molecular target: Mitogen-activated protein kinase kinase kinase kinase 2 (Homo sapiens, UniProt Q12851);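 further: measured as one member of a kinome-wide kinase panel, with MAP4K2 as the panel entry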
[17] = molecular target: Glycogen synthase kinase-3 beta (Homo sapiens, UniProt P49841);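 further: value comes from a broad kinome profiling panel, with GSK3B as the panel member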
[18] = molecular target: Dual specificity tyrosine-phosphorylation-regulated kinase 1B (Homo sapiens, UniProt Q9Y463); experiment: Navigating the Kinome. Panel member name: DYRK1B
LIM domain kinase 1 = LIM domain kinase 1 (Homo sapiens, UniProt P53667); experiment: Navigating the Kinome. Panel member name: LIMK1
[19] = molecular target: Protein kinase C theta type (Homo sapiens, UniProt Q04759); experiment: Navigating the Kinome. Panel member name: PRKCQ
Activin receptor type-1 = Activin receptor type-1 (Homo sapiens, UniProt Q04771); experiment: Navigating the Kinome. Panel member name: ACVR1
[20] = molecular target: Dual specificity tyrosine-phosphorylation-regulated kinase 1A (Homo sapiens, UniProt Q13627);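 further: measured against DYRK1A as one member of a broad kinome profiling panel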
[21] = molecular target: Fibroblast growth factor receptor 1 (Homo sapiens, UniProt P11362)
[22] = molecular target: Platelet-derived growth factor receptor alpha (Homo sapiens, UniProt P16234); experiment: Navigating the Kinome. Panel member name: PDGFRA
[23] = molecular target: Mitogen-activated protein kinase 8 (Homo sapiens, UniProt P45983);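 further: value comes from one member of a kinome-wide kinase profiling panel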
[24] = molecular target: Receptor-type tyrosine-protein kinase FLT3 (Homo sapiens, UniProt P36888);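 further: FLT3 was tested as one member of a kinome-wide kinase panel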
[25] = molecular target: Cyclin-dependent kinase 5 (Homo sapiens, UniProt Q00535);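 further: CDK5 measured as one member of a kinase profiling panel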
[26] = molecular target: Rho-associated protein kinase 1 (Homo sapiens, UniProt Q13464);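 further: measured within a broad kinome-wide panel profiling many kinases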
[27] = molecular target: Cyclin-dependent kinase 8 (Homo sapiens, UniProt P49336); experiment: Navigating the Kinome. Panel member name: CDK8
[28] = molecular target: Tyrosine-protein kinase Fyn (Homo sapiens, UniProt P06241)
[29] = molecular target: cAMP-dependent protein kinase catalytic subunit alpha (Homo sapiens, UniProt P17612)
[30] = molecular target: Hepatocyte growth factor receptor (Homo sapiens, UniProt P08581);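 further: kinase panel profiling across the kinome, with MET as the panel member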
[31] = molecular target: Macrophage colony-stimulating factor 1 receptor (Homo sapiens, UniProt P07333);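 further: value comes from the Navigating the Kinome screening panel, CSF1R member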
[32] = molecular target: Tyrosine-protein kinase ABL1 (Homo sapiens, UniProt P00519)
Aurora kinase A = molecular target: T1, Aurora kinase A (Homo sapiens, UniProt O14965);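 further: value from the Navigating the Kinome kinase panel profiling, panel entry STK6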
T1 sequence (O14965 whole entry): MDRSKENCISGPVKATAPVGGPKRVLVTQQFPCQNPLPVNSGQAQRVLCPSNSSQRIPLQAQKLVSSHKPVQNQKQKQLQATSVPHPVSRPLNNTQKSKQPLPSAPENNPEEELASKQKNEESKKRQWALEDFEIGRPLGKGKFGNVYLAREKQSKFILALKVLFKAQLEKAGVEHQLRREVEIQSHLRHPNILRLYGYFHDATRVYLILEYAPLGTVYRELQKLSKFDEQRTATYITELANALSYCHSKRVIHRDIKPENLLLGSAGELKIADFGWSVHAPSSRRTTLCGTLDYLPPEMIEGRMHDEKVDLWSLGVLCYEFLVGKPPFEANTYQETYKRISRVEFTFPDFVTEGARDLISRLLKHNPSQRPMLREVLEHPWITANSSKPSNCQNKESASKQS

Aurora kinase B, sequence (Q96GD4 whole entry): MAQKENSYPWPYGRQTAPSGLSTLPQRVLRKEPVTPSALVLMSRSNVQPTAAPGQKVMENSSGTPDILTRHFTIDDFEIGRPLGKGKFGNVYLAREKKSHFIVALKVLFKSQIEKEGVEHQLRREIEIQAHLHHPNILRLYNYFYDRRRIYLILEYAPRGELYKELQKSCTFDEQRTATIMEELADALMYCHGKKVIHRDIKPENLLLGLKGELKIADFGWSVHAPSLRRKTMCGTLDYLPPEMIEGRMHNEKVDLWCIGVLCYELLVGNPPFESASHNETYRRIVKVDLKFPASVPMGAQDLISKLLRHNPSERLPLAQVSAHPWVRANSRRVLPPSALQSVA
Dual specificity protein kinase CLK4, sequence (Q9HAZ1 whole entry): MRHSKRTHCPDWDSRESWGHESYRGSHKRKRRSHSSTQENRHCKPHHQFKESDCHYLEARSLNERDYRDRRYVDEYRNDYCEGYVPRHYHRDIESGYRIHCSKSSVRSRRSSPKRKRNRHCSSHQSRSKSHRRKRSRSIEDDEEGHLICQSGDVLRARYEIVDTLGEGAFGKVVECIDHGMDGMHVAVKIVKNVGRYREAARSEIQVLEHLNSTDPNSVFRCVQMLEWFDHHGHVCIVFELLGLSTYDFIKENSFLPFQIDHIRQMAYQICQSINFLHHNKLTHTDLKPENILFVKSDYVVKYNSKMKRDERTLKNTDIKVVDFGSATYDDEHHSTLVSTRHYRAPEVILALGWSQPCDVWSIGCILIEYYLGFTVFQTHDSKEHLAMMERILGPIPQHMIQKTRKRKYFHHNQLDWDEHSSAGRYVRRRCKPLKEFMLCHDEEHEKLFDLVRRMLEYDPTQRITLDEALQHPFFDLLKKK
Tyrosine-protein kinase ABL1, sequence (P00519 whole entry): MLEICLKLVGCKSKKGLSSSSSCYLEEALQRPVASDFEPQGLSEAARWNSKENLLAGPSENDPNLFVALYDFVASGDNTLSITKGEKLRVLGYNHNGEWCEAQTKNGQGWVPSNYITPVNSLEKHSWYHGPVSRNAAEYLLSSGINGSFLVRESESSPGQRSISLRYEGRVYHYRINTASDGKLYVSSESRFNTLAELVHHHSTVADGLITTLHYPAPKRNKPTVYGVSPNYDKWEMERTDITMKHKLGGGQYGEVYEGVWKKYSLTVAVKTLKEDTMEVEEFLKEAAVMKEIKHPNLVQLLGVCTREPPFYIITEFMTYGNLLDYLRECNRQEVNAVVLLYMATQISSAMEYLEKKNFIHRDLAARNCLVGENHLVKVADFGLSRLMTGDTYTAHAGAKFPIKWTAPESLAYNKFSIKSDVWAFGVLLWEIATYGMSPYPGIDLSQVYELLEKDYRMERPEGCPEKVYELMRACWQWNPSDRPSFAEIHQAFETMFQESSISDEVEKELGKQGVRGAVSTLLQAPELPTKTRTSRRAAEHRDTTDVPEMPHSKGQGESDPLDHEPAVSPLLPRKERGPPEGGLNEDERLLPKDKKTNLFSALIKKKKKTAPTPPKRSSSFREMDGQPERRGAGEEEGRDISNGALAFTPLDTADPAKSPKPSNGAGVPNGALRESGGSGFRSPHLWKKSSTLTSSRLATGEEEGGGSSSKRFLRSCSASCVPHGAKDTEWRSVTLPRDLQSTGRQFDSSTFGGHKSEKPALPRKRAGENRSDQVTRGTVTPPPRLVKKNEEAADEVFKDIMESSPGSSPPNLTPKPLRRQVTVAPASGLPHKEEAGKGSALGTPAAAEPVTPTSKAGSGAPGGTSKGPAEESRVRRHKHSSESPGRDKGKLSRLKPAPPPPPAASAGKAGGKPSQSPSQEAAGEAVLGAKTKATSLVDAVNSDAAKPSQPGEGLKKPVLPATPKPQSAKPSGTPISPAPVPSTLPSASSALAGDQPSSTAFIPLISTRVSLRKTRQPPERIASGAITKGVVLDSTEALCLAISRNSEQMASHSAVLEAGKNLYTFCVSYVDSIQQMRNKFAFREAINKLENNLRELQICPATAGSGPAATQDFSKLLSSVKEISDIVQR
Macrophage colony-stimulating factor 1 receptor, sequence (P07333 whole entry): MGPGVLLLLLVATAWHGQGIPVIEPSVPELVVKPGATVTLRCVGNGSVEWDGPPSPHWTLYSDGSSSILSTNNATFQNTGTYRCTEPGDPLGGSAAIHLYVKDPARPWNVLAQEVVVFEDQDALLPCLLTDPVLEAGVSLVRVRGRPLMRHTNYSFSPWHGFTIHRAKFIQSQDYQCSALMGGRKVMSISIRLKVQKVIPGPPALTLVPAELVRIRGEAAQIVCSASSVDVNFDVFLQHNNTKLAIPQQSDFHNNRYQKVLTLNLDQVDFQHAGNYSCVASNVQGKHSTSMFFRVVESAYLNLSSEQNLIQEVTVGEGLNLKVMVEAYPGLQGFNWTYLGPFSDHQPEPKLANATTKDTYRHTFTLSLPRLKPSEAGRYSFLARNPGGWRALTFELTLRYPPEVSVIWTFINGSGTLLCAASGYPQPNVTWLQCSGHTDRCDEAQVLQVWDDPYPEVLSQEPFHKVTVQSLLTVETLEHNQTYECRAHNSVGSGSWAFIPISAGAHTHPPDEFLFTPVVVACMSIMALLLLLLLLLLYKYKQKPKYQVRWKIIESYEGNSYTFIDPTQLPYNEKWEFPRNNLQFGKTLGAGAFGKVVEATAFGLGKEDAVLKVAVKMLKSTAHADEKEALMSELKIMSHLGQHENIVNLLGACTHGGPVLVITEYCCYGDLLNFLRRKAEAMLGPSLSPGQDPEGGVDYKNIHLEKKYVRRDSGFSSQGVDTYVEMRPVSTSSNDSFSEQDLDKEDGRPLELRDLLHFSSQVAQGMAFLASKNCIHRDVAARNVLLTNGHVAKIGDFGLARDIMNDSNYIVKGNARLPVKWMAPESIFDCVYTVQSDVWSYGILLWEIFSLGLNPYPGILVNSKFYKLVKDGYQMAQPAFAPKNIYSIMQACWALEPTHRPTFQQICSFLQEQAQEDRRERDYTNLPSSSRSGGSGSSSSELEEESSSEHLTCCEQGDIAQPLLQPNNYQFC
Tyrosine-protein kinase receptor TYRO3, sequence (Q06418 whole entry): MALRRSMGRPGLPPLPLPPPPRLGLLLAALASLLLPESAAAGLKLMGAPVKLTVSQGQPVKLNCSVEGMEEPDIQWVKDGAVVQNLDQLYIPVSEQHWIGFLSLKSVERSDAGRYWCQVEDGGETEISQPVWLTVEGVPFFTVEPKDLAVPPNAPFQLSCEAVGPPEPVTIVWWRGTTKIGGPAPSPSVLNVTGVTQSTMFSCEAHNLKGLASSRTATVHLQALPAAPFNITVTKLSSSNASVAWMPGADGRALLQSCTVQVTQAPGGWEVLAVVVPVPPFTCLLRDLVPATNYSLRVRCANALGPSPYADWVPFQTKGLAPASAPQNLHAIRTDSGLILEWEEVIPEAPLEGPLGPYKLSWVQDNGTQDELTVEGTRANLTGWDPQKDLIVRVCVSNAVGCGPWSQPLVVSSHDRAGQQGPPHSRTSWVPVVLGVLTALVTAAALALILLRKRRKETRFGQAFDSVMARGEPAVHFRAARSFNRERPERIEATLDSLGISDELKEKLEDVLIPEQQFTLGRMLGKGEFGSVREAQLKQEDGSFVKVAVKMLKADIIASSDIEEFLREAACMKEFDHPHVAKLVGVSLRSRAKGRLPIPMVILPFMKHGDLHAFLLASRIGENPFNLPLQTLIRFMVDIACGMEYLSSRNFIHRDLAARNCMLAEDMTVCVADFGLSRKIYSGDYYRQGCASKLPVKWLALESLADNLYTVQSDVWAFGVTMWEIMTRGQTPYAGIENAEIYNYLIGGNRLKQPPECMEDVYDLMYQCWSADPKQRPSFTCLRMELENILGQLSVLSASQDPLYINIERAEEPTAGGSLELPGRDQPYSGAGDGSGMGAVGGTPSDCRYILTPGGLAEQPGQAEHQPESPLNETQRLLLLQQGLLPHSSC
Serine/threonine-protein kinase Chk1, sequence (O14757 whole entry): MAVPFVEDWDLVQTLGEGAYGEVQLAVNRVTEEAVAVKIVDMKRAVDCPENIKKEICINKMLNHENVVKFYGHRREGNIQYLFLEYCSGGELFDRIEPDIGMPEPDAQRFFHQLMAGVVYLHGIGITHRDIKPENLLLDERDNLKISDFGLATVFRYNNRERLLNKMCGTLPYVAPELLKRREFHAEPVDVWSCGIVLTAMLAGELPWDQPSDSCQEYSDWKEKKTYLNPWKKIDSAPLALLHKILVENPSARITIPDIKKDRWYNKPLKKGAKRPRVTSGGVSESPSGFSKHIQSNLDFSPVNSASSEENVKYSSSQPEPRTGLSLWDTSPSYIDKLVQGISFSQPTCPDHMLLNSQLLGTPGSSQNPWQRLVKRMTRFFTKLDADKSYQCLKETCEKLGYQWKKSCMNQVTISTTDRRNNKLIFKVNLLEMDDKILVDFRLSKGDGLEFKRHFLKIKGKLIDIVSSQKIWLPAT
Dual specificity mitogen-activated protein kinase kinase 1, sequence (Q02750 whole entry): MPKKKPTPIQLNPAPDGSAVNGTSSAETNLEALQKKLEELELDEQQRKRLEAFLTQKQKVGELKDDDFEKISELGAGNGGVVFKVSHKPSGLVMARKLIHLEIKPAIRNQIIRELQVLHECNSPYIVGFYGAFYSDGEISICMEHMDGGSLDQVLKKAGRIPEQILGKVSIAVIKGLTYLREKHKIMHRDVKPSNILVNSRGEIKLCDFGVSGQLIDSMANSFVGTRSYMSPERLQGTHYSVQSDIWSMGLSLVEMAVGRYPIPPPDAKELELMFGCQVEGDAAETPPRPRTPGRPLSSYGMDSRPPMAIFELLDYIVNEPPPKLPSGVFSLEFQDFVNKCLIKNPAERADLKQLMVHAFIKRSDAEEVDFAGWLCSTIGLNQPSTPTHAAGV
Cyclin-dependent kinase 7, sequence (P50613 whole entry): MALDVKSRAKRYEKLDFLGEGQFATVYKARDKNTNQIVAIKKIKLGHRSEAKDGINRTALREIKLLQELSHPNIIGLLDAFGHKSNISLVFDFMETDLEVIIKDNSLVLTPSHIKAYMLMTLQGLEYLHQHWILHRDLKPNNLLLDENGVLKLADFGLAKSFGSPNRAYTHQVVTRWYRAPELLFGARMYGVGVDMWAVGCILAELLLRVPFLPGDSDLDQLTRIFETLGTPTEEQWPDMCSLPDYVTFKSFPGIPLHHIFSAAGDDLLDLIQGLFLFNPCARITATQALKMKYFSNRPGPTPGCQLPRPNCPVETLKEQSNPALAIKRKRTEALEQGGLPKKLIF

Ki [1]: 5.01 µM (active)
Ki [2]: 25.1 µM (active)
Ki [3]: 100 µM (active)
Ki (Aurora kinase B): 6.31 µM (active)
Ki [4]: 50.1 µM (active)
Ki [5]: 7.94 µM (active)
Ki [6]: 39.8 µM (active)
Ki [7]: 15.8 µM (active)
Ki [8]: 5.01 µM (active)
Ki [9]: 39.8 µM (active)
Ki [10]: 31.6 µM (active)
Ki [11]: 50.1 µM (active)
Ki [12]: 100 µM (active)
Ki [13]: 2 µM (active)
Ki [14]: 10 µM (active)
Ki [15]: 100 µM (active)
Ki [16]: 3.16 µM (active)
Ki [17]: 39.8 µM (active)
Ki [18]: 10 µM (active)
Ki (LIM domain kinase 1): 20 µM (active)
Ki [19]: > 100 µM (inactive)
Ki (Activin receptor type-1): 3.16 µM (active)
Ki [20]: 12.6 µM (active)
Ki [21]: 79.4 µM (active)
Ki [22]: 15.8 µM (active)
Ki [23]: 39.8 µM (active)
Ki [24]: 63.1 µM (active)
Ki [25]: 5.01 µM (active)
Ki [26]: 10 µM (active)
Ki [27]: 3.16 µM (active)
Ki [28]: 79.4 µM (active)
Ki [29]: 10 µM (active)
Ki [30]: 31.6 µM (active)
Ki [31]: 15.8 µM (active)
Ki [32]: 25.1 µM (active)
Ki (Aurora kinase A): > 63.1 µM (inactive)
Compound: Cc1cccc(-c2cccc3onc(N)c23)c1
